Measured values from ChEMBL document CHEMBL4808180, “Identification of 2,2-Dimethylbutanoic Acid (HST5040), a Clinical Development Candidate for the Treatment of Propionic Acidemia and Methylmalonic Acidemia” (J Med Chem, 2021).

Key:
[1] = Stability in human hepatocytes assessed as unchanged compound at 50 uM measured after 4 hrs; format: ADME, cell-based, Hepatocyte; settings: read-out: Stabilty
[2] = Protein binding in Sprague-Dawley rat plasma at 40 uM incubated for 4 hrs by equilibrium dialysis; format: ADME, cell-free
[3] = AUC (0 to infinity) in CD1 mouse at 30 mg/kg, iv; format: ADME, organism-based; design: time infinity, route intravenous, dose 30 mg/kg; settings: in vivo
[4] = Reduction of 2-Methylcitric acid in human hepatocytes derived from propionic acidemia patient pretreated for 30 mins followed by 13C-isoleucine addition and measured after 1 hr by MS/MS analysis; format: functional, cell-based; settings: hepatocyte
[5] = Drug metabolism in Gottingen minipig plasma assessed as HST5040-glucuronide metabolite formation at 10 mg/kg administered as single dose by LC/MS analysis; format: ADME, organism-based, Sus scrofa domesticus; settings: pig, in vivo
[6] = Reduction of CoASH in human hepatocytes derived from methylmalonic acidemia patient pretreated for 30 mins followed by 13C-isoleucine addition and measured after 1 hr by MS/MS analysis; format: functional, cell-based; settings: hepatocyte
[7] = Induction of toxicity in minipig assessed as increase in vacuole size in the epithelial cells of renal tubules at >=50 mg/kg; format: organism-based, Sus scrofa domesticus; settings: pig, in vivo
[8] = Cmax in Sprague-Dawley rat at 50 mg/kg, po; format: ADME, organism-based; design: route oral, dose 50 mg/kg; settings: in vivo
[9] = Tmax in CD1 mouse at 100 mg/kg, po; format: ADME, organism-based; settings: in vivo
[10] = Drug level in Gottingen minipig blood at 10 mg/kg, po using radiolabeled compound measured after 72 hrs by quantitative whole-body autoradiography; format: ADME, organism-based, Sus scrofa domesticus; settings: pig, in vivo, BLD = below limit of detection
[11] = Tmax in Sprague-Dawley rat at 200 mg/kg, po; format: ADME, organism-based; settings: in vivo
[12] = AUC (0 to infinity) in Sprague-Dawley rat at 10 mg/kg, iv; format: ADME, organism-based; design: route intravenous, time infinity, dose 10 mg/kg; settings: in vivo
[13] = AUC (0 to infinity) in Sprague-Dawley rat at 200 mg/kg, po; format: ADME, organism-based; design: route oral, time infinity, dose 200 mg/kg; settings: in vivo
[14] = AUC (0 to infinity) in CD1 mouse at 300 mg/kg, iv; format: ADME, organism-based; design: route intravenous, time infinity, dose 300 mg/kg; settings: in vivo
[15] = biological target: T1, Broad substrate specificity ATP-binding cassette transporter ABCG2 (Homo sapiens, UniProt Q9UNQ0); assay: Inhibition of human BCRP assessed as reduction in E3S transport at 24000 uM relative to control
T1 sequence (Q9UNQ0 whole entry): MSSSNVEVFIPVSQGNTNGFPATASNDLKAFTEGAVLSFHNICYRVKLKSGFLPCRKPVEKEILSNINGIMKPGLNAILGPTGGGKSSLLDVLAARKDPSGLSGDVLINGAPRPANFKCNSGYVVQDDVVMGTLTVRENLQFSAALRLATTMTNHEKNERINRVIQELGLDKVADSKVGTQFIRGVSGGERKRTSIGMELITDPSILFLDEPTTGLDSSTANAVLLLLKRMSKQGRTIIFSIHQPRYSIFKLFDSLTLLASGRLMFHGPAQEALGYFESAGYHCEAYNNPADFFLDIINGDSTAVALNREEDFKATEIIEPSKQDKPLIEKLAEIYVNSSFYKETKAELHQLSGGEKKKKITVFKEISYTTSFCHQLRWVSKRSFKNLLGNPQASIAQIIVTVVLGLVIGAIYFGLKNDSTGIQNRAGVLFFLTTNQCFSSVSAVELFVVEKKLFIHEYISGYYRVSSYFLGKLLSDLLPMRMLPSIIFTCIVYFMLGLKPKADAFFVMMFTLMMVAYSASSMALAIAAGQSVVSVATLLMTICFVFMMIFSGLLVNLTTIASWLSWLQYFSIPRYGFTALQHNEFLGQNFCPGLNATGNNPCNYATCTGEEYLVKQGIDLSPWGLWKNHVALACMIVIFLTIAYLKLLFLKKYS

[16] = Oral bioavailability in CD1 mouse at 300 mg/kg; format: ADME, organism-based; settings: in vivo
[17] = Reduction of methylmalonyl-CoA in human hepatocytes derived from methylmalonic acidemia pretreated for 30 mins followed by 13C-isoleucine addition and measured after 1 hr by MS/MS analysis; format: functional, cell-based; settings: hepatocyte
[18] = Drug metabolism in Sprague-Dawley rat plasma assessed as HST5040-glucuronide metabolite formation at 10 mg/kg administered as single dose by LC/MS analysis; format: ADME, organism-based; settings: in vivo
[19] = Drug metabolism in Sprague-Dawley rat urine assessed as HST5040-glucuronide metabolite formation at 10 mg/kg administered as single dose by LC/MS analysis; format: ADME, organism-based; settings: in vivo
[20] = Oral bioavailability in Sprague-Dawley rat at 200 mg/kg; format: ADME, organism-based; settings: in vivo
[21] = Reduction of acetyl-CoA in human hepatocytes derived from propionic acidemia patient pretreated for 30 mins followed by 13C-isoleucine addition and measured after 1 hr by MS/MS analysis; format: functional, cell-based; settings: hepatocyte
[22] = AUC (0 to infinity) in Sprague-Dawley rat at 10 mg/kg, po; format: ADME, organism-based; design: time infinity, route oral, dose 10 mg/kg; settings: in vivo
[23] = Reduction of methylmalonyl-CoA in human hepatocytes derived from methylmalonic acidemia at 30 uM pretreated for 30 mins followed by 13C-isoleucine addition and measured after 1 hr by MS/MS analysis relative to control; format: functional, Hepatocyte; design: scale not given: the % may be the effect or the level left; settings: time 90 min, 1.5 h
[24] = Half life in CD1 mouse at 30 mg/kg, po; format: ADME, organism-based; settings: in vivo
[25] = Apparent permeability of the compound across apical to basal side in human Caco-2 cells; format: ADME, cell-based
[26] = Reduction of acetyl carnitine in human hepatocytes derived from propionic acidemia patient at 30 uM pretreated for 30 mins followed by 13C-isoleucine addition and measured after 1 hr by MS/MS analysis relative to control; format: functional, Hepatocyte; design: scale not given: the % may be the effect or the level left; settings: time 90 min, 1.5 h
[27] = Reduction of propionyl-CoA in human hepatocytes derived from methylmalonic acidemia pretreated for 30 mins followed by 13C-isoleucine addition and measured after 1 hr by MS/MS analysis; format: functional, cell-based; settings: hepatocyte
[28] = Drug metabolism in Sprague-Dawley rat plasma assessed as HST5040-carnitine metabolite formation at 10 mg/kg administered as single dose by LC/MS analysis; format: ADME, organism-based; settings: in vivo
[29] = Drug metabolism in human hepatocytes derived from propionic acidemia patient assessed as formation of 2,2-dimethylbutanoic acid-CoA pretreated for 30 mins followed by 13C-isoleucine addition and measured after 1 hr by MS/MS analysis relative to control; format: ADME, cell-based; settings: Hepatocyte
Hepatocyte = assay: Cytotoxicity against minipig hepatocytes assessed as reduction in cell viability using radiolabeled compound; format: cell-based, Sus scrofa domesticus; settings: pig
[30] = Oral bioavailability in CD1 mouse at 100 mg/kg; format: ADME, organism-based; settings: in vivo
[31] = Volume of distribution in Sprague-Dawley rat at 10 mg/kg, iv; format: ADME, organism-based; settings: in vivo
[32] = Reduction of 2-Methylcitric acid in human hepatocytes derived from methylmalonic acidemia patient at 30 uM pretreated for 30 mins followed by 13C-isoleucine addition and measured after 1 hr by MS/MS analysis relative to control; format: functional, Hepatocyte; design: scale not given: the % may be the effect or the level left; settings: time 90 min, 1.5 h
[33] = Induction of toxicity in minipig assessed as increase in albumin to […] ratio at 300 mg/kg/day; format: organism-based, Sus scrofa domesticus; settings: pig, in vivo
[34] = Reduction of acetyl-CoA in human hepatocytes derived from propionic acidemia patient at 30 uM pretreated for 30 mins followed by 13C-isoleucine addition and measured after 1 hr by MS/MS analysis relative to control; format: functional, Hepatocyte; design: scale not given: the % may be the effect or the level left; settings: time 90 min, 1.5 h
[35] = Reduction of CoASH in human hepatocytes derived from propionic acidemia patient at 30 uM pretreated for 30 mins followed by 13C-isoleucine addition and measured after 1 hr by MS/MS analysis relative to control; format: functional, Hepatocyte; design: scale not given: the % may be the effect or the level left; settings: time 90 min, 1.5 h

remaining at 4 h, 50 µM [1]: 88%
PPB [2]: 0%
AUC(0-inf) [3]: 70.2 µg·h/mL
Drug metabolism [5]: Metabolite_Detected
Cmax [8]: 21900 ng/mL
Tmax [9]: 30 min
Drug uptake [10]: Bld
Tmax [11]: 25 min
AUC(0-inf) [12]: 9.67 µg·h/mL
AUC(0-inf) [13]: 244 µg·h/mL
AUC(0-inf) [14]: 1250 µg·h/mL
inhibition (INH) [15]: Not Active
F [16]: 177.5%
Drug metabolism [18]: Metabolite_Detected
Drug metabolism [19]: Metabolite_Detected
bioavailability [20]: 126%
AUC(0-inf) [22]: 5.52 µg·h/mL
half-life [24]: 35.4 min
Papp A→B [25]: > 20 ×10⁻⁶ cm/s
Drug metabolism [28]: Metabolite_Detected
bioavailability [30]: 93.3%
Vd [31]: 1.22 L/kg
SMILES: CCC(C)(C)C(=O)O [DIMEBUTIC ACID]
EC50 [4]: 1.1 µM
EC50 [6]: 14.1 µM
Activity [7]: Toxic
EC50 [17]: 2 µM
EC50 [21]: 2.3 µM
Activity [23]: -55%
Activity [26]: 54%
EC50 [27]: 2.1 µM
EC50 [29]: 3 µM
Activity (Hepatocyte): Non-Toxic
Activity [32]: -66.7%
Activity [33]: Toxic
Activity [34]: 54%
Activity [35]: -31.3%
